IC50 data for 31 compounds are collected here from patent US12637433B2, “Histone deacetylase inhibitors” (THE UNIVERSITY OF QUEENSLAND, priority 2020, dated 2026).

Molecules are shown by their SMILES.

For the test, the target named is T1, human HDAC7 enzyme (Homo sapiens, UniProt Q8WUI4).
T1 construct: purchased Reaction Biology Corp
T1 sequence (Q8WUI4 whole entry): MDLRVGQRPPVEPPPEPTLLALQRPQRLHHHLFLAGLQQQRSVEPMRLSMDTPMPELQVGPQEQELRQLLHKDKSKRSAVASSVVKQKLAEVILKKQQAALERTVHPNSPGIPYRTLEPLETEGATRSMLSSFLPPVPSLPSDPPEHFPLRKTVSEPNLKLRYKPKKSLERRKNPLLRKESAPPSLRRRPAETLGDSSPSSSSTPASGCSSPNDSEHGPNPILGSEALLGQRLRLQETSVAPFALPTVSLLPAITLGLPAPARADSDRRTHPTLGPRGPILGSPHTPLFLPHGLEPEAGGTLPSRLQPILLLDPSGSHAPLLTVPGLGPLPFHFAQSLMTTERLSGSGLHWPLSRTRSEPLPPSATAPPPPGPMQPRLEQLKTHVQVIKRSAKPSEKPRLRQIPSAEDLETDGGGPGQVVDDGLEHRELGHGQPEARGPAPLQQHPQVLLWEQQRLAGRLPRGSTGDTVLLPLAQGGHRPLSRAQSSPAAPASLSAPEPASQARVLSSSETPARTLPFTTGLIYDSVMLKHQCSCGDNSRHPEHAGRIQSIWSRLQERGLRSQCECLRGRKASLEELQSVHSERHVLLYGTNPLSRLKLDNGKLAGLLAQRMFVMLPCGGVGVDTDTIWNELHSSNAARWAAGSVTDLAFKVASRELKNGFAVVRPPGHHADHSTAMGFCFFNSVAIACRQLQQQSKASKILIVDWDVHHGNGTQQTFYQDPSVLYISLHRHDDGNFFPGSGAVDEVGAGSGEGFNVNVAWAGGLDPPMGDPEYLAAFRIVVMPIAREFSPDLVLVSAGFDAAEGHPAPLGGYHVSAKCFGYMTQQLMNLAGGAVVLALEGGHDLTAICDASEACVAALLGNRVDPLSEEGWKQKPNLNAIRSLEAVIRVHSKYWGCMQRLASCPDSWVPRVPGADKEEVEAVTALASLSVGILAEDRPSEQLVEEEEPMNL
The test is described as follows: Human HDAC7 enzyme assay (Class IIa HDACs). Type of test: biochemical. To be noted: Table 8; recombinant human HDAC7.
Broadly, the IC50 is the midpoint of a concentration-inhibition curve. As for `O=C(O)c1ccc(Nc2ccc(C(=O)NO)c(-c3ccccc3)c2)cc1` [Example 74], the IC50 turned out to be 68 ± 15 nM.

As for `O=C(NO)c1ccc(NC(=O)C2(C(=O)Nc3ccccc3)CC2)cc1-c1ccccc1` [Example 87], the IC50 was determined as 241 nM.

As for `O=C(NCc1ccc(C(=O)NO)c(-c2ccccc2)c1)Nc1ccccc1` [Example 28], the IC50 was 104 ± 21 nM.

Take `C[C@H](N)C(=O)NCc1ccc(C(=O)NO)c(-c2ccccc2)c1` [Example 92]: the IC50 stood at 3130 ± 1730 nM.

Regarding `O=C(NCc1ccc(C(=O)NO)c(-c2cccc(F)c2)c1)Nc1cccc2cccnc12` [Example 5], the IC50 amounted to 64 ± 12 nM.

As for `O=C(NCc1ccc(C(=O)NO)c(-c2ccccc2)c1)c1cnc[nH]1` [Example 94], the IC50 worked out at 165 ± 45 nM.

In the case of `O=C(NCc1ccc(C(=O)NO)c(-c2ccccc2)c1)c1ccccn1` [Example 16], the IC50 is 108 ± 34 nM.

Consider `O=C(NCc1ccc(C(=O)NO)c(-c2ccccc2)c1)c1ccncc1` [Example 18], for which the IC50 came to 205 ± 47 nM.

With `O=C(NCc1ccc(C(=O)NO)c(-c2ccccc2)c1)c1ccccc1NC(=O)C(F)(F)F` [Example 22], the IC50 worked out at 925 ± 865 nM.

Turning to `O=C(NO)c1ccc(CNCc2ccc[nH]2)cc1-c1ccccc1` [Example 95], the IC50 was 914 ± 204 nM.

As for `O=C(NCc1ccc(C(=O)NO)c(-c2ccccc2)c1)c1ccccc1` [Example 15], the IC50 amounted to 123 ± 39 nM.

Turning to `CC(C)(C)OC(=O)c1ccc(Nc2ccc(C(=O)NO)c(-c3ccccc3)c2)cc1` [Example 75], the IC50 was found to be 54 ± 7 nM.

With `Cc1nc2ccccc2c(=O)n1Cc1ccc(C(=O)N(C)O)c(-c2ccccc2)c1` [Example 100], the IC50 was at least 10000 nM.

Consider `COc1cccc(-c2cc(CNC(=O)Nc3cccc4cccnc34)ccc2C(=O)NO)c1` [Example 103], for which the IC50 is over 10000 nM.

`O=C(NO)c1ccc(Oc2ccc(F)cc2)cc1-c1ccccc1` [Example 80]: the IC50 was 175 ± 26 nM.

Regarding `O=C(NO)c1ccc(CNC(=O)C2CCCN2)cc1-c1ccccc1` (stereo not shown) [Example 27], the IC50 is 960 ± 225 nM.

In the case of `O=C(NO)c1ccc(Nc2ncccn2)cc1-c1ccccc1` [Example 83], the IC50 turned out to be 447 ± 177 nM.

Regarding `NC(=O)c1ccc(C(=O)NCc2ccc(C(=O)NO)c(-c3ccccc3)c2)cc1` [Example 21], the IC50 came to 116 ± 27 nM.

As for `O=C(NCc1ccc(C(=O)NO)c(-c2ccccc2Cl)c1)Nc1cccc2cccnc12` [Example 7], the IC50 stood at 178 ± 47 nM.

Take `COc1ccc(-c2cc(CNC(=O)Nc3cccc4cccnc34)ccc2C(=O)NO)cc1` [Example 102]: the IC50 is over 10000 nM.

In the case of `O=C(NO)c1c(F)cc(CN2C(=O)c3ccccc3S2(=O)=O)cc1-c1ccccc1` [Example 57b], the IC50 is 582 ± 104 nM.

In the case of `Cc1cccc(-c2cc(CNC(=O)Nc3cccc4cccnc34)ccc2C(=O)NO)c1` [Example 10], the IC50 was over 10000 nM.

For the compound `O=C(Cc1c[nH]c2ccccc12)NCc1ccc(C(=O)NO)c(-c2ccccc2)c1` [Example 25], the IC50 is 238 ± 86 nM.

For the compound `O=C(Nc1ccc(C(=O)NO)c(-c2ccccc2)c1)c1ccc(F)cc1` [Example 61], the IC50 was found to be 645 nM.

Consider `Nc1ccc(-c2cc(CNC(=O)Nc3cccc4cccnc34)ccc2C(=O)NO)cc1` [Example 105], for which the IC50 was over 10000 nM.

Turning to `O=C(NO)c1ccc(CNCc2ccc(C(=O)NO)c(-c3ccccc3)c2)cc1-c1ccccc1` [Example 31, bis(4-hydroxyaminocarbonyl-3-phenylbenzyl)amine], the IC50 turned out to be 125 ± 22 nM.

As to `Nc1ccc(C(=O)NO)c(-c2ccccc2)c1` [Example 99], the IC50 came to 945 nM.

For `CN(c1ccc(F)cc1)c1ccc(C(=O)NO)c(-c2ccccc2)c1` [Example 81], the IC50 was determined as 64 ± 10 nM.

With `O=C(NCc1ccc(C(=O)NO)c(-c2ccccc2F)c1)Nc1cccc2cccnc12` [Example 4], the IC50 is 152 ± 40 nM.

For `O=C(NO)c1ccc(NC(=O)C2(c3ccc4ccccc4c3)CCOCC2)cc1-c1ccccc1` [Example 93], the IC50 was 1590 nM.

With `O=C(NO)c1ccc(NC(=O)C2(C(=O)Nc3ccccc3)CCC2)cc1-c1ccccc1` [Example 88], the IC50 is 75 ± 23 nM.
